Experimental data taken from paper PMC4744088 (Journal of biomolecular screening, 2015).

Experiment: "true hits" assay alpha screen signal
Settings: indicates false positive

## Nc1c(S(=O)(=O)O)cc(Nc2ccc(Nc3nc(Cl)nc(Nc4cccc(S(=O)(=O)O)c4)n3)c(S(=O)(=O)O)c2)c2c1C(=O)c1ccccc1C2=O [Reactive blue 2]
  inhibition of the "true hits" assay alpha screen signal: greater than 50%
